Here are results for seven molecules from the NIST ThermoML archive (doi:10.1016/j.tca.2006.06.018).

Data set [1] is described as follows: Molar enthalpy of transition or fusion. Conditions: DSC.
The conditions of data set [2]: DTA.

SMILES strings stand for the structures. Numbers after ± are expanded uncertainties.

Take `CCCCOCn1cc[n+](COCCCC)c1.F[B-](F)(F)F` [1,3-bis(butoxymethyl)-1H-imidazolium tetrafluoroborate]: the “Molar enthalpy of transition or fusion” value in data set [1] (Crystal 1) was found to be 2.04 ± 0.0789 kcal/mol; in data set [1] (Crystal 2) it was 2.6 ± 0.0908 kcal/mol. In addition, the Triple point temperature is 281.4 ± 2.1 K in data set [2] (Crystal 1) and 267.4 ± 0.5 K in data set [2] (Crystal 2).

Take `CC[N+](C)(C)CCO.N#C[N-]C#N` [N-ethyl-2-hydroxyethyl-N,N-dimethylammonium dicyanamide]: the “Molar enthalpy of transition or fusion” value in data set [1] (Crystal 1) worked out at 2.06 ± 0.0789 kcal/mol. Besides, the Triple point temperature was found to be 282.7 ± 2.1 K in data set [2] (Crystal 1) and 168.4 ± 0.5 K in data set [2] (Metastable crystal).

For `CC[N+](C)(C)CCO.F[P-](F)(F)(F)(F)F`, the “Molar enthalpy of transition or fusion” value in data set [1] (Crystal 1) turned out to be 2.53 ± 0.0908 kcal/mol. Also, the Triple point temperature in data set [2] (Crystal 1) was determined as 272 ± 2.1 K.

For the molecule `CCCCCCCCOCn1cc[n+](COCCCCCCCC)c1.O=S(=O)([N-]S(=O)(=O)C(F)(F)F)C(F)(F)F`, the “Molar enthalpy of transition or fusion” value in data set [1] (Crystal 1) worked out at 8.17 ± 0.229 kcal/mol. Further, in data set [2] (Crystal 1), the Triple point temperature worked out at 287.7 ± 2.1 K.

`CCCCCCCCCCOn1cc[n+](OCCCCCCCCCC)c1C.O=S(=O)([N-]S(=O)(=O)C(F)(F)F)C(F)(F)F`: the “Molar enthalpy of transition or fusion” value in data set [1] (Crystal 1) turned out to be 19 ± 0.502 kcal/mol. For the same molecule, the Triple point temperature in data set [2] (Crystal 1) worked out at 303.1 ± 2.1 K.

On to `CCCC[N+](C)(C)CCO.[Br-]` [N-(2-hydroxyethyl)-N,N-dimethylbutanaminium bromide], for which the “Molar enthalpy of transition or fusion” value in data set [1] (Crystal 1) stood at 3.16 ± 0.105 kcal/mol. For the same molecule, the Triple point temperature in data set [2] (Crystal 1) came out at 359.3 ± 2.1 K; in data set [2] (Metastable crystal), 187.3 ± 0.5 K.

For the molecule `CC[N+](C)(C)CCO.F[B-](F)(F)F`, the “Molar enthalpy of transition or fusion” value in data set [1] (Crystal 1) amounted to 1.23 ± 0.0598 kcal/mol; in data set [1] (Crystal 2), 0.28 ± 0.0382 kcal/mol; in data set [1] (Crystal 3), 0.731 ± 0.0478 kcal/mol. The Triple point temperature in data set [2] (Crystal 1) came to 426.8 ± 2.1 K; in data set [2] (Crystal 2) it was 311.5 ± 0.5 K; in data set [2] (Crystal 3), 252.8 ± 0.5 K; in data set [2] (Metastable crystal), 146 ± 1 K.
